# From ChEMBL document CHEMBL5131375, “Recent Developments in the Use of Kinase Inhibitors for Management of Viral Infections” (J Med Chem, 2022)
# Key:
# Human betaherpesvirus 5 [1] = experiment: microbe, parasite or virus in culture; format: functional, organism-based
# Human betaherpesvirus 5 [2] = experiment: Antiviral activity against HCMV Merlin (RCMV 1111) infected in HFF cells incubated for 96 hrs; format: functional, organism-based; conditions: Human betaherpesvirus 5, Merlin (RCMV 1111)
# Human betaherpesvirus 5 [3] = experiment: Antiviral activity against HCMV AD169 infected in HFF cells incubated for 96 hrs; format: functional, organism-based; conditions: Human betaherpesvirus 5, AD169, HFF
# dengue virus type 1 = experiment: microbe, parasite or virus in culture; format: functional, organism-based
# dengue virus type 3 = experiment: microbe, parasite or virus in culture; format: functional, organism-based
# dengue virus type 4 = experiment: microbe, parasite or virus in culture; format: functional, organism-based
# in vitro [4] = conditions: human
# dengue virus type 2 = experiment: microbe, parasite or virus in culture; format: functional, organism-based
# Hepatitis C virus [5] = experiment: microbe, parasite or virus in culture
# Hepatitis C virus [6] = experiment: microbe, parasite or virus in culture; remark: listed apart in the source
# in vitro [7] = conditions: human; remark: listed apart in the source
# Human rhinovirus sp. = experiment: microbe, parasite or virus in culture
# in vitro [8] = conditions: human, hela
# Hepatitis C virus [9] = experiment: microbe, parasite or virus in culture; conditions: subtype 1b
# Coxsackievirus B3 = experiment: microbe, parasite or virus in culture; conditions: Enterovirus B
# Influenza A virus [10] = experiment: microbe, parasite or virus in culture; format: functional, organism-based; conditions: pdmH1N1
# Influenza A virus [11] = experiment: microbe, parasite or virus in culture; format: functional, organism-based
# [12] = Cytotoxicity against human A549 cells; format: toxicity, cell-based
# Influenza A virus [13] = experiment: Antiviral activity against influenza A virus HN79; format: functional, organism-based
# Influenza A virus [14] = experiment: microbe, parasite or virus in culture; format: functional, organism-based; conditions: H3N2
# Dengue virus = experiment: microbe, parasite or virus in culture
# Human alphaherpesvirus 1 [15] = experiment: microbe, parasite or virus in culture; format: functional, organism-based
# [16] = Cytotoxicity against HFL1 cells; format: toxicity, cell-based; conditions: human
# Human alphaherpesvirus 1 [17] = experiment: Antiviral activity against HSV-1 in HFL1 cells incubated for 24 hrs; format: functional, organism-based; conditions: Human alphaherpesvirus 1, HFL1, 24 h
# Chikungunya virus = experiment: microbe, parasite or virus in culture; format: functional, organism-based
# Junin virus = experiment: microbe, parasite or virus in culture; format: functional, organism-based; conditions: Mammarenavirus juninense
# in vitro [18] = conditions: chlorocebus sabaeus, Vero cells
# Human alphaherpesvirus 1 [19] = experiment: Antiviral activity against HSV-1 at 10 uM relative to control; format: functional
# Influenza A virus [20] = experiment: microbe, parasite or virus in culture; format: functional, organism-based; conditions: H1N1pdm09
# [21] = target: AP2-associated protein kinase 1 (Homo sapiens, UniProt Q2M2I8)
# Chain of AP2-associated protein kinase 1 (Q2M2I8 whole entry): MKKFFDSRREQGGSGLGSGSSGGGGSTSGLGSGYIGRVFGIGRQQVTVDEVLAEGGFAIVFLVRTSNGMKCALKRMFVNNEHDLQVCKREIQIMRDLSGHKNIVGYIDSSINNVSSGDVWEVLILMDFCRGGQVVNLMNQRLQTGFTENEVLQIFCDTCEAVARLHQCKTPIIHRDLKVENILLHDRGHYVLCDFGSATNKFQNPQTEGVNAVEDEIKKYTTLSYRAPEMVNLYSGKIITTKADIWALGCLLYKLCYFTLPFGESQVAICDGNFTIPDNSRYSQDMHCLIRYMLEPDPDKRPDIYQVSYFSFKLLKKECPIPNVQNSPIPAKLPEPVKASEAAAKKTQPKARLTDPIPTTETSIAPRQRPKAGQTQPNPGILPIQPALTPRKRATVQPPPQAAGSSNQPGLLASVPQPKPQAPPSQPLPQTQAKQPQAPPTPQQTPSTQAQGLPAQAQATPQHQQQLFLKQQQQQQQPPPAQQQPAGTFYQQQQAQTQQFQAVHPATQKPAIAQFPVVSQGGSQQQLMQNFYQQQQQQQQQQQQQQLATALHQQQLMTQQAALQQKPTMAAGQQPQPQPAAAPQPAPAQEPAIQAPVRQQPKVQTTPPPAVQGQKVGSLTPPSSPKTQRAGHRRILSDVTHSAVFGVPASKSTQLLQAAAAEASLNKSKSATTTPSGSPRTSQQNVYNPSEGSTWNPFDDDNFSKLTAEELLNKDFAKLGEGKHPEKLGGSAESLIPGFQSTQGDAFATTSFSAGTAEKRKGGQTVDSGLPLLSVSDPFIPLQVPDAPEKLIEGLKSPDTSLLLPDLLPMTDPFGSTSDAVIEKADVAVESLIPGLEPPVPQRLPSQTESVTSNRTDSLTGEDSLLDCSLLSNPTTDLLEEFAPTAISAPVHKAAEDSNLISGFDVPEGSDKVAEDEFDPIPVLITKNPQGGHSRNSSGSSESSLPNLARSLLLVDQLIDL
# SARS-CoV-2 [22] = experiment: Antiviral activity against SARS-CoV-2 assessed as reduction of viral load at 400 nM relative to control; format: functional, Severe acute respiratory syndrome coronavirus 2; set-up: scale not given: the % may be the effect or the level left
# [23] = Cytotoxicity against liver spheroids (unknown origin); format: toxicity, tissue-based
# [24] = Cytotoxicity against osteoblast cells (unknown origin); format: toxicity, cell-based, Calvarial osteoblast
# SARS-CoV-2 [25] = experiment: Antiviral activity against SARS-CoV-2 assessed as reduction of viral load at 400 to 800 nM; format: functional, Severe acute respiratory syndrome coronavirus 2; set-up: scale not given: the % may be the effect or the level left; conditions: dose 400-800 nM
# SARS-CoV-2 [26] = experiment: microbe, parasite or virus in culture; format: functional, organism-based; conditions: Severe acute respiratory syndrome coronavirus 2
# SARS-CoV-2 [27] = experiment: microbe, parasite or virus in culture; format: functional, organism-based; conditions: Severe acute respiratory syndrome coronavirus 2; remark: listed apart in the source
# Vero C1008 = experiment: Cytotoxicity against African green monkey Vero E6 cells at 250 nM; format: toxicity, cell-based; conditions: chlorocebus sabaeus, vero c1008, 0.25 µM
compound,measurement,setting,value
COc1cc[nH]c1/C=C1\C(=O)Nc2ccc([N+](=O)[O-])c(N3CC[C@@H](O)C3)c21,EC50,Human betaherpesvirus 5 [1],0.01 µM
same,EC50,Human betaherpesvirus 5 [2],1.3 µM
same,EC50,Human betaherpesvirus 5 [3],0.01 µM
COc1ccc(CC(N)c2csc(Nc3ncccn3)n2)cc1 (stereo unspecified),EC50,dengue virus type 1,0.9 µM
same,EC50,dengue virus type 3,2.6 µM
same,EC50,dengue virus type 4,5 µM
same,CC50,in vitro [4]; Huh-7.5.1 cells,> 100 µM
same,EC50,dengue virus type 2,7.6 µM
Cc1nc2c(NCc3cccc(S(C)(=O)=O)c3)nccn2c1-c1ccc(O)c(F)c1,EC50,Hepatitis C virus [5],0.1 µM
same,EC50,Hepatitis C virus [6],0.1 µM
same,CC50,in vitro [7]; huh-7,> 30 µM
COc1cc(-c2cnc3c(N4CCOCC4)snc3c2)cc(OC)c1OC,EC50,Hepatitis C virus [5],2.5 µM
same,CC50,in vitro [4]; Huh-7.5.1 cells,23.2 µM
COc1ccc(-c2cnc3c(OC(C)C)snc3c2)cc1OC,CC50,in vitro [4]; huh7.5.1,> 10 µM
CC(=O)NCCNc1cc(Cl)nn2c(-c3cccc(S(=O)(=O)N(C)C)c3)c(C)nc12,EC50,Human rhinovirus sp.,1.03 µM
same,CC50,in vitro [8],> 50 µM
same,EC50,Hepatitis C virus [9],0.08 µM
same,EC50,Coxsackievirus B3,0.14 µM
Cc1ccc([N+](=O)[O-])cc1S(=O)(=O)N(C)/N=C/c1cnc2ccc(Br)cn12,IC50,Influenza A virus [10],0.04 µM
same,IC50,Influenza A virus [11],0.04 µM
same,CC50,[12],> 100 µM
same,IC50,Influenza A virus [13],0.04 µM
same,IC50,Influenza A virus [14],0.04 µM
COc1ccc(-c2cnc3[nH]cc(C#Cc4cccnc4)c3c2)cc1OC,EC50,Dengue virus,0.043 µM
same,CC50,in vitro [4]; Huh-7.5.1 cells,17 µM
COc1ccc(-c2ccc3nsc(N4C[C@@H](C)O[C@@H](C)C4)c3n2)cc1OC,EC50,Dengue virus,1 µM
same,CC50,in vitro [4]; huh7.5.1,> 10 µM
Cc1c(NC(=O)c2cccc(NC(=O)C(C)NC(=O)c3ccco3)c2)c(=O)n(-c2ccccc2)n1C (stereo unspecified),EC50,Human alphaherpesvirus 1 [15],64 µM
same,CC50,[16],2040 µM
same,IC50,Human alphaherpesvirus 1 [17],29 µM
CC1Oc2ccc(NC(=O)[C@@H](Cc3c[nH]c4ccccc34)NC(=O)c3ccc(F)cc3)cc2NC1=O (stereo partly specified),EC50,Human alphaherpesvirus 1 [15],29 µM
same,CC50,[16],1410 µM
same,IC50,Human alphaherpesvirus 1 [17],29 µM
CCNS(=O)(=O)c1cc(-c2c(C)nc3c(NCc4ccnc(CC)c4)cc(Cl)nn23)ccc1OO,EC50,Human rhinovirus sp.,0.075 µM
same,CC50,in vitro [8],18.3 µM
same,EC50,Hepatitis C virus [9],0.029 µM
same,EC50,Coxsackievirus B3,0.058 µM
CC(C)c1ccc(NC(=O)c2csc(C(O)C(C)C)n2)cc1 (stereo unspecified),EC50,Chikungunya virus,2.2 µM
same,CC50,in vitro [7]; Huh-7 cells,> 50 µM
Cc1cc(-c2cc(C(=O)Nc3nc(CN4CCCC(C)C4)cs3)c3c(C)noc3n2)c(C)o1 (stereo unspecified),EC50,Human alphaherpesvirus 1 [15],32 µM
same,CC50,[16],159 µM
same,IC50,Human alphaherpesvirus 1 [17],29 µM
C/C(O)=C(/C#N)C(=O)Nc1ccc(C(F)(F)F)cc1,CC50,[12],> 100 µM
same,EC50,Junin virus,16 µM
same,CC50,in vitro [18],223 µM
O=C(Nc1c[nH]nc1-c1nc2ccc(CN3CCOCC3)cc2[nH]1)NC1CC1 [AT-9283],Activity,Human alphaherpesvirus 1 [19],70%
Cc1cc(C(=O)NOCCO)c(Nc2ccc(I)cc2F)n(C)c1=O [AZD-8330],CC50,[12],> 100 µM
same,IC50,Influenza A virus [20],0.04 µM
CCS(=O)(=O)N1CC(CC#N)(n2cc(-c3ncnc4[nH]ccc34)cn2)C1 [BARICITINIB],IC50,[21],0.017 µM
same,Activity,SARS-CoV-2 [22],30%
same,CC50,[23],> 5 µM
same,CC50,[24],> 50 µM
same,Activity,SARS-CoV-2 [25],30%
CNCc1ccc(-c2cc(-c3nc(-c4ccc(S(=O)(=O)C(C)C)cc4)cnc3N)on2)cc1 [BERZOSERTIB],IC50,SARS-CoV-2 [26],0.00428 µM
same,IC50,SARS-CoV-2 [27],0.00428 µM
same,Activity,Vero C1008,Non-Toxic
